Measurements taken from ChEMBL document CHEMBL1671719, “Inhibition of antibiotic-resistant Staphylococcus aureus by the broad-spectrum dihydrofolate reductase inhibitor RAB1” (Antimicrob Agents Chemother, 2010).
≈ marks a conversion by molar mass, not a printed value. Where “and” joins values, the source holds several entries; their conditions need not be identical. Equal values may be shown once.

Key:
Dihydrofolate reductase [1] = target: Dihydrofolate reductase (Staphylococcus aureus, UniProt P0A017); assay: Inhibition of Staphylococcus aureus wild type recombinant DHFR by MTS assay
Staphylococcus aureus [2] = assay: Ratio of Ki for TMP-resistant Staphylococcus aureus DHFR to Ki for wild type Staphylococcus aureus DHFR
Dihydrofolate reductase [3] = target: Dihydrofolate reductase (Staphylococcus aureus, UniProt P0A017, F99Y); assay: Inhibition of Staphylococcus aureus DHFR F98Y mutant by MTS assay
Staphylococcus aureus [4] = assay: Antimicrobial activity against methicillin-resistant Staphylococcus aureus; type: functional
Staphylococcus aureus [5] = assay: microbe, parasite or virus in culture; conditions: isolate NRS71
Francisella tularensis = assay: Antimicrobial activity against Francisella tularensis Schu4 by broth microdilution method; type: functional
Staphylococcus aureus [6] = assay: Antimicrobial activity against methicillin-resistant Staphylococcus aureus isolate NRS1 by broth microdilution method; type: functional
Enterococcus faecalis = assay: Antimicrobial activity against vancomycin-resistant Enterococcus faecalis ATCC 700802 by broth microdilution method; type: functional
Bacillus anthracis = assay: Antimicrobial activity against Bacillus anthracis Ames by broth microdilution method; type: functional
Brucella abortus = assay: Antimicrobial activity against Brucella abortus 2308 by broth microdilution method; type: functional
Staphylococcus aureus [7] = assay: Antimicrobial activity against vancomycin-resistant Staphylococcus aureus VRS2 by broth microdilution method; type: functional
Staphylococcus aureus [8] = assay: Antimicrobial activity against vancomycin-resistant Staphylococcus aureus VRS3 by broth microdilution method; type: functional
Staphylococcus aureus [9] = assay: Antimicrobial activity against vancomycin-resistant Staphylococcus aureus VRS1 by broth microdilution method; type: functional
Staphylococcus aureus [10] = assay: Antimicrobial activity against methicillin-resistant Staphylococcus aureus isolate NRS70 by broth microdilution method; type: functional
Yersinia pestis = assay: Antimicrobial activity against Yersinia pestis CO92 by broth microdilution method; type: functional
Staphylococcus aureus [11] = assay: microbe, parasite or virus in culture; conditions: isolate NRS123

With `CCC[C@H]1c2ccccc2C=NN1C(=O)/C=C/c1cc(Cc2cnc(N)nc2N)cc(OC)c1OC` the IC50 (Dihydrofolate reductase [1]) was 2.9 nM and 12.5 nM, the Ki (Dihydrofolate reductase [1]) was 0.9 nM and the Ratio IC50 (Staphylococcus aureus [2]) was 0.6. The Ratio Ki (Staphylococcus aureus [2]) was 0.2 and the Ki (Dihydrofolate reductase [3]) was 0.2 nM.

For `COc1cc(Cc2cnc(N)nc2N)c2c(c1OC)OC(C1CC1)C=C2` (centres undefined), the MIC (Staphylococcus aureus [4]) was ≤ 0.06 µg/mL.

For `COc1ncc([C@H]2c3ccccc3C=NN2C(=O)/C=C/c2cc(Cc3cnc(N)nc3N)cc(OC)c2OC)cn1`, the IC50 (Dihydrofolate reductase [1]) was 11.5 nM and 3.9 nM, the Ki (Dihydrofolate reductase [1]) was 3.5 nM and the Ratio IC50 (Staphylococcus aureus [2]) was 5.7. It also gave a Ratio Ki (Staphylococcus aureus [2]) of 1.9, an IC50 (Dihydrofolate reductase [3]) of 65.4 nM and a Ki (Dihydrofolate reductase [3]) of 6.5 nM.

`COc1cc(-c2ccccc2)cc([C@@H](C)C#Cc2c(C)nc(N)nc2N)c1` was tested, and the IC50 (Dihydrofolate reductase [1]) was 61 nM and the IC50 (Dihydrofolate reductase [3]) was 190 nM.

In the case of `CCCC1c2ccccc2C=NN1C(=O)/C=C/c1cc(Cc2cnc(N)nc2N)cc(O)c1OC` (centres undefined), the MIC (Staphylococcus aureus [5]) is reported as ≤ 0.0625 µg/mL, the IC50 (Dihydrofolate reductase [1]) is reported as 9.4 nM and 5.2 nM and the Ki (Dihydrofolate reductase [1]) is reported as 2.8 nM. It also gave an MIC (Francisella tularensis) of 1 µg/mL (≈ 2.12 µM), a Ratio IC50 (Staphylococcus aureus [2]) of 0.9 and a Ratio Ki (Staphylococcus aureus [2]) of 0.3. The MIC (Staphylococcus aureus [6]) was ≤ 0.0625 µg/mL, the MIC (Enterococcus faecalis) was 0.03 µg/mL (≈ 0.0635 µM) and the MIC (Bacillus anthracis) was 1 µg/mL (≈ 2.12 µM). The MIC (Brucella abortus) was 16 µg/mL (≈ 33.9 µM), the MIC (Staphylococcus aureus [7]) was 4 µg/mL (≈ 8.46 µM) and the MIC (Staphylococcus aureus [8]) was ≤ 0.125 µg/mL. The MIC (Staphylococcus aureus [9]) was 8 µg/mL (≈ 16.9 µM), the MIC (Staphylococcus aureus [10]) was ≤ 0.0625 µg/mL and the MIC (Yersinia pestis) was 4 µg/mL (≈ 8.46 µM). For the same compound, the IC50 (Dihydrofolate reductase [3]) was 8.8 nM and 22.6 nM, the Ki (Dihydrofolate reductase [3]) was 0.9 nM and the MIC (Staphylococcus aureus [11]) was ≤ 0.0625 µg/mL.

In the case of `COc1cc([C@H](C)C#Cc2c(C)nc(N)nc2N)ccc1-c1c(C)cccc1C`, the IC50 (Dihydrofolate reductase [1]) is reported as 61 nM and the IC50 (Dihydrofolate reductase [3]) is reported as 190 nM.

`O=C(O)c1cn(C2CC2)c2cc(N3CCNCC3)c(F)cc2c1=O` [CIPROFLOXACIN] was tested, and the MIC (Staphylococcus aureus [5]) was > 16 µg/mL, the MIC (Staphylococcus aureus [7]) was > 16 µg/mL and the MIC (Staphylococcus aureus [8]) was > 16 µg/mL. The MIC (Staphylococcus aureus [9]) was > 16 µg/mL, the MIC (Staphylococcus aureus [10]) was 0.5 µg/mL (≈ 1.51 µM) and the MIC (Staphylococcus aureus [11]) was 0.5 µg/mL (≈ 1.51 µM).

`CCC[C@@H]1C[C@@H](C(=O)N[C@@H]([C@H]2O[C@H](SC)[C@H](O)[C@@H](O)[C@H]2O)[C@H](C)Cl)N(C)C1` [CLINDAMYCIN] was tested, and the MIC (Staphylococcus aureus [5]) was > 4 µg/mL, the MIC (Staphylococcus aureus [7]) was > 4 µg/mL and the MIC (Staphylococcus aureus [8]) was > 4 µg/mL. For the same compound, the MIC (Staphylococcus aureus [9]) was > 4 µg/mL, the MIC (Staphylococcus aureus [10]) was > 4 µg/mL and the MIC (Staphylococcus aureus [11]) was 0.12 µg/mL (≈ 0.282 µM).

In the case of `Nc1ccnc(N)n1` [DIAMINOPYRIMIDINE], the MIC (Staphylococcus aureus [6]) is reported as 2 µg/mL (≈ 18.2 µM) and the MIC (Staphylococcus aureus [11]) is reported as 0.5 µg/mL (≈ 4.54 µM).

For `CC[C@H]1OC(=O)[C@H](C)[C@@H](O[C@H]2C[C@@](C)(OC)[C@@H](O)[C@H](C)O2)[C@H](C)[C@@H](O[C@@H]2O[C@H](C)C[C@H](N(C)C)[C@H]2O)[C@](C)(O)C[C@@H](C)C(=O)[C@H](C)[C@@H](O)[C@]1(C)O` [ERYTHROMYCIN], the MIC (Staphylococcus aureus [5]) was > 8 µg/mL, the MIC (Staphylococcus aureus [7]) was > 8 µg/mL and the MIC (Staphylococcus aureus [8]) was > 8 µg/mL. The MIC (Staphylococcus aureus [9]) was > 8 µg/mL, the MIC (Staphylococcus aureus [10]) was > 8 µg/mL and the MIC (Staphylococcus aureus [11]) was 0.5 µg/mL (≈ 0.681 µM).

`CC(=O)NC[C@H]1CN(c2ccc(N3CCOCC3)c(F)c2)C(=O)O1` [LINEZOLID] was tested, and the MIC (Staphylococcus aureus [5]) was 1 µg/mL (≈ 2.96 µM), the MIC (Staphylococcus aureus [7]) was 1 µg/mL (≈ 2.96 µM) and the MIC (Staphylococcus aureus [10]) was 1 µg/mL (≈ 2.96 µM).

`Cc1onc(-c2ccccc2)c1C(=O)N[C@@H]1C(=O)N2[C@@H]1SC(C)(C)[C@@H]2C(=O)O` [OXACILLIN] was tested, and the MIC (Staphylococcus aureus [5]) was > 16 µg/mL, the MIC (Staphylococcus aureus [6]) was > 32 µg/mL and the MIC (Staphylococcus aureus [7]) was > 16 µg/mL. The MIC (Staphylococcus aureus [8]) was > 16 µg/mL, the MIC (Staphylococcus aureus [9]) was > 16 µg/mL and the MIC (Staphylococcus aureus [10]) was > 16 µg/mL. For the same compound, the MIC (Staphylococcus aureus [11]) was > 16 µg/mL.

For `CC1(C)S[C@@H]2[C@H](NC(=O)Cc3ccccc3)C(=O)N2[C@H]1C(=O)O` [PENICILLIN G], the MIC (Staphylococcus aureus [5]) was > 2 µg/mL, the MIC (Staphylococcus aureus [6]) was > 8 µg/mL and the MIC (Staphylococcus aureus [7]) was > 2 µg/mL. The MIC (Staphylococcus aureus [8]) was > 2 µg/mL, the MIC (Staphylococcus aureus [9]) was > 2 µg/mL and the MIC (Staphylococcus aureus [10]) was > 2 µg/mL. For the same compound, the MIC (Staphylococcus aureus [11]) was > 2 µg/mL.

For `CN(C)[C@@H]1C(O)=C(C(N)=O)C(=O)[C@@]2(O)C(O)=C3C(=O)c4c(O)cccc4[C@@](C)(O)[C@H]3C[C@@H]12` [TETRACYCLINE], the MIC (Staphylococcus aureus [6]) was 32 µg/mL (≈ 72 µM) and the MIC (Staphylococcus aureus [11]) was 32 µg/mL (≈ 72 µM).

Work on `COc1cc(Cc2cnc(N)nc2N)cc(OC)c1OC` [TRIMETHOPRIM] yielded an MIC (Staphylococcus aureus [5]) of 2 µg/mL (≈ 6.89 µM), an MIC (Francisella tularensis) of 16 µg/mL (≈ 55.1 µM) and an MIC (Staphylococcus aureus [6]) of 2 µg/mL (≈ 6.89 µM). The MIC (Enterococcus faecalis) was ≤ 1 µg/mL, the MIC (Bacillus anthracis) was > 256 µg/mL and the MIC (Brucella abortus) was 32 µg/mL (≈ 110 µM). For the same compound, the MIC (Staphylococcus aureus [7]) was > 256 µg/mL, the MIC (Staphylococcus aureus [8]) was 2 µg/mL (≈ 6.89 µM) and the MIC (Staphylococcus aureus [9]) was > 256 µg/mL. The MIC (Staphylococcus aureus [10]) was 2 µg/mL (≈ 6.89 µM), the MIC (Yersinia pestis) was ≤ 1 µg/mL and the MIC (Staphylococcus aureus [11]) was 2 µg/mL (≈ 6.89 µM).

With `CN[C@H](CC(C)C)C(=O)N[C@H]1C(=O)N[C@@H](CC(N)=O)C(=O)N[C@H]2C(=O)N[C@H]3C(=O)N[C@H](C(=O)N[C@H](C(=O)O)c4cc(O)cc(O)c4-c4cc3ccc4O)[C@H](O)c3ccc(c(Cl)c3)Oc3cc2cc(c3O[C@@H]2O[C@H](CO)[C@@H](O)[C@H](O)[C@H]2O[C@H]2C[C@](C)(N)[C@H](O)[C@H](C)O2)Oc2ccc(cc2Cl)[C@H]1O` [VANCOMYCIN] the MIC (Staphylococcus aureus [6]) was 8 µg/mL (≈ 5.52 µM), the MIC (Staphylococcus aureus [7]) was 64 µg/mL (≈ 44.2 µM) and the MIC (Staphylococcus aureus [8]) was > 32 µg/mL. The MIC (Staphylococcus aureus [9]) was > 256 µg/mL.

GENTAMICIN was tested, and the MIC (Staphylococcus aureus [6]) was > 16 µg/mL, the MIC (Staphylococcus aureus [7]) was > 16 µg/mL and the MIC (Staphylococcus aureus [8]) was > 16 µg/mL. For the same compound, the MIC (Staphylococcus aureus [9]) was > 16 µg/mL and the MIC (Staphylococcus aureus [10]) was 1 µg/mL.
